Article PMC8222254, “Self-assembly of an anion receptor with metal-dependent kinase inhibition and potent in vitro anti-cancer properties” (Nature Communications, 2021)
pIC50: −log10 of the molar value. “And” between values parts separate entries of the source, which are not always exact repeats. Equal values may be shown once. Read-outs that look alike come from different tables or passages of the source.

How the values were obtained:
Experiment in all cases: Chemosensitivity, 96 h continuous exposure, MTT assay
Assay type in all cases: cell-based, human
A549 = conditions: for pIC50 / Selectivity indices relative to ARPE-19, Ratio + anion:no anion / Selectivity indices relative to MCF10A, Ratio + anion:no anion: A549; for Selectivity index (ARPE19): IC50 ARPE-19 / IC50 A549; for Selectivity index (MCF10A): IC50 MCF10A / IC50 A549; for Relative potency (+ anion to no anion), Ratio + anion:no anion: ratio of IC50, A549; for Selectivity indices relative to ARPE-19, Ratio + anion:no anion: ratio of SI (ARPE-19); for Selectivity indices relative to MCF10A, Ratio + anion:no anion: ratio of SI (MCF 10A)
Summary of the method: (§1)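 IC50 is the concentration giving 50% growth reduction, derived from dose-response curves of MTT absorbance at 540 nm. Before dosing, lines were plated at 2 × 10^3 cells/well, GBM1 stem-like cells at 3 × 10^3/well, overnight at 37 °C; compound exposure lasted 96 h without interruption, vehicle 0.2% DMSO.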

ARPE-19 non-cancer cells = conditions: for Relative potency (+ anion to no anion), Ratio + anion:no anion: ratio of IC50, ARPE-19
Summary of the method: as §1

MCF10A non-cancer cells = conditions: for Relative potency (+ anion to no anion), Ratio + anion:no anion: ratio of IC50, MCF10A
Summary of the method: as §1

H460 = conditions: for pIC50 / Selectivity indices relative to ARPE-19, Ratio + anion:no anion / Selectivity indices relative to MCF10A, Ratio + anion:no anion: H460; for Selectivity index (ARPE19): IC50 ARPE-19 / IC50 H460; for Selectivity index (MCF10A): IC50 MCF10A / IC50 H460; for Relative potency (+ anion to no anion), Ratio + anion:no anion: ratio of IC50, H460; for Selectivity indices relative to ARPE-19, Ratio + anion:no anion: ratio of SI (ARPE-19); for Selectivity indices relative to MCF10A, Ratio + anion:no anion: ratio of SI (MCF 10A)
Summary of the method: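 H460 lung and PSN1 pancreatic carcinoma lines, grown in RPMI-1640 with 10% FBS, were plated at 2 × 10^3 cells/well, dosed across a concentration range for 96 h, then given MTT for 4 h. Formazan absorbance at 540 nm gave IC50 values.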

BxPC3 = conditions: for pIC50 / Selectivity indices relative to ARPE-19, Ratio + anion:no anion / Selectivity indices relative to MCF10A, Ratio + anion:no anion: BXPC3; for Selectivity index (ARPE19): IC50 ARPE-19 / IC50 BXPC3; for Selectivity index (MCF10A): IC50 MCF10A / IC50 BXPC3; for Relative potency (+ anion to no anion), Ratio + anion:no anion: ratio of IC50, BXPC3; for Selectivity indices relative to ARPE-19, Ratio + anion:no anion: ratio of SI (ARPE-19); for Selectivity indices relative to MCF10A, Ratio + anion:no anion: ratio of SI (MCF 10A)
Summary of the method: as §1

DLD-1 = conditions: for pIC50 / Selectivity indices relative to ARPE-19, Ratio + anion:no anion / Selectivity indices relative to MCF10A, Ratio + anion:no anion: DLD-1; for Selectivity index (ARPE19): IC50 ARPE-19 / IC50 DLD-1; for Selectivity index (MCF10A): IC50 MCF10A / IC50 DLD-1; for Relative potency (+ anion to no anion), Ratio + anion:no anion: ratio of IC50, DLD-1; for Selectivity indices relative to ARPE-19, Ratio + anion:no anion: ratio of SI (ARPE-19); for Selectivity indices relative to MCF10A, Ratio + anion:no anion: ratio of SI (MCF 10A)
Summary of the method: as §1

HCT116 p53+/+ = conditions: for pIC50 / Selectivity indices relative to ARPE-19, Ratio + anion:no anion / Selectivity indices relative to MCF10A, Ratio + anion:no anion: HCT116 p53+/+; for Selectivity index (ARPE19): IC50 ARPE-19 / IC50 HCT116 p53+/+; for Selectivity index (MCF10A): IC50 MCF10A / IC50 HCT116 p53+/+; for Relative potency (+ anion to no anion), Ratio + anion:no anion: ratio of IC50, HCT116 p53+/+; for Selectivity indices relative to ARPE-19, Ratio + anion:no anion: ratio of SI (ARPE-19); for Selectivity indices relative to MCF10A, Ratio + anion:no anion: ratio of SI (MCF 10A)
Summary of the method: as §1

[1] = mean of replicates, read-out: Mean IC50
[2] = single replicate, read-out: IC50 values for each replicate
[3] = ARPE-19, mean of replicates, read-out: Mean IC50
[4] = ARPE-19, single replicate, read-out: IC50 values for each replicate
[5] = ARPE-19 non-cancer, read-out: Mean IC50 values
[6] = MCF10A non-cancer, read-out: Mean IC50 values
[7] = MCF10A, mean of replicates, read-out: Mean IC50
[8] = MCF10A, single replicate, read-out: IC50 values for each replicate

## CC(=O)[O-].CC(=O)[O-].CC(=O)[O-].O=P([O-])([O-])[O-].[Zn+2].[Zn+2].[Zn+2].c1ccc(-c2csc(NCCN(CCNc3nc(-c4ccccn4)cs3)CCNc3nc(-c4ccccn4)cs3)n2)nc1.c1ccc(-c2csc(NCCN(CCNc3nc(-c4ccccn4)cs3)CCNc3nc(-c4ccccn4)cs3)n2)nc1 [[L2Zn3(PO4)]3+]
A549; [1]
  pIC50: 6.30
A549; read-out: Mean IC50 values
  pIC50: 6.30
A549; [2]
  pIC50: 6.63 and 6.13 and 6.21 and 6.38
A549
  Selectivity index (ARPE19): 261.42
  Selectivity index (MCF10A): 28.79
  Relative potency (+ anion to no anion), Ratio + anion:no anion: 1.24
  Selectivity indices relative to ARPE-19, Ratio + anion:no anion: 0.670
  Selectivity indices relative to MCF10A, Ratio + anion:no anion: 0.072
ARPE-19 non-cancer cells; [3]
  pIC50: 3.88
ARPE-19 non-cancer cells; [4]
  pIC50: 3.92 and 3.93 and 3.81
ARPE-19 non-cancer cells; [5]
  pIC50: 3.88
ARPE-19 non-cancer cells
  Relative potency (+ anion to no anion), Ratio + anion:no anion: 0.83
MCF10A non-cancer cells; [6]
  pIC50: 4.84
MCF10A non-cancer cells; [7]
  pIC50: 4.84
MCF10A non-cancer cells; [8]
  pIC50: 4.92 and 4.82 and 4.79
MCF10A non-cancer cells
  Relative potency (+ anion to no anion), Ratio + anion:no anion: 0.09
H460; [1]
  pIC50: 6.60
H460; read-out: Mean IC50 values
  pIC50: 6.60
H460; [2]
  pIC50: 6.62 and 6.58 and 6.65
H460
  Selectivity index (ARPE19): 525.98
  Selectivity index (MCF10A): 57.92
  Relative potency (+ anion to no anion), Ratio + anion:no anion: 0.69
  Selectivity indices relative to ARPE-19, Ratio + anion:no anion: 1.204
  Selectivity indices relative to MCF10A, Ratio + anion:no anion: 0.129
BxPC3; [1]
  pIC50: 6.14
BxPC3; read-out: Mean IC50 values
  pIC50: 6.14
BxPC3; [2]
  pIC50: 6.09 and 6.16 and 6.21 and 6.12
BxPC3
  Selectivity index (ARPE19): 179.90
  Selectivity index (MCF10A): 19.81
  Relative potency (+ anion to no anion), Ratio + anion:no anion: 2.28
  Selectivity indices relative to ARPE-19, Ratio + anion:no anion: 0.366
  Selectivity indices relative to MCF10A, Ratio + anion:no anion: 0.039
DLD-1; [1]
  pIC50: 6.72
DLD-1; read-out: Mean IC50 values
  pIC50: 6.72
DLD-1; [2]
  pIC50: 6.69 and 7.05 and 6.74 and 6.66 and 6.59
DLD-1
  Selectivity index (ARPE19): 689.32
  Selectivity index (MCF10A): 75.91
  Relative potency (+ anion to no anion), Ratio + anion:no anion: 1.12
  Selectivity indices relative to ARPE-19, Ratio + anion:no anion: 0.745
  Selectivity indices relative to MCF10A, Ratio + anion:no anion: 0.080
HCT116 p53+/+; [1]
  pIC50: 6.66
HCT116 p53+/+; read-out: Mean IC50 values
  pIC50: 6.66
HCT116 p53+/+; [2]
  pIC50: 6.66 and 6.64 and 6.68
HCT116 p53+/+
  Selectivity index (ARPE19): 600.78
  Selectivity index (MCF10A): 66.16
  Relative potency (+ anion to no anion), Ratio + anion:no anion: 0.47
  Selectivity indices relative to ARPE-19, Ratio + anion:no anion: 1.780
  Selectivity indices relative to MCF10A, Ratio + anion:no anion: 0.191

## O=S(=O)(O)O.[Zn+2].[Zn+2].[Zn+2].c1ccc(-c2csc(NCCN(CCNc3nc(-c4ccccn4)cs3)CCNc3nc(-c4ccccn4)cs3)n2)nc1.c1ccc(-c2csc(NCCN(CCNc3nc(-c4ccccn4)cs3)CCNc3nc(-c4ccccn4)cs3)n2)nc1 [[L2Zn3(SO4)]4+]
A549; [1]
  pIC50: 6.24
A549; read-out: Mean IC50 values
  pIC50: 6.24
A549; [2]
  pIC50: 6.58 and 6.23 and 6.11 and 6.15
A549
  Selectivity index (ARPE19): 290.84
  Selectivity index (MCF10A): 26.16
  Relative potency (+ anion to no anion), Ratio + anion:no anion: 1.44
  Selectivity indices relative to ARPE-19, Ratio + anion:no anion: 0.745
  Selectivity indices relative to MCF10A, Ratio + anion:no anion: 0.065
ARPE-19 non-cancer cells; [3]
  pIC50: 3.77
ARPE-19 non-cancer cells; [4]
  pIC50: 3.74 and 3.82 and 3.75
ARPE-19 non-cancer cells; [5]
  pIC50: 3.77
ARPE-19 non-cancer cells
  Relative potency (+ anion to no anion), Ratio + anion:no anion: 1.08
MCF10A non-cancer cells; [6]
  pIC50: 4.82
MCF10A non-cancer cells; [7]
  pIC50: 4.82
MCF10A non-cancer cells; [8]
  IC50: 18.5 µM and 11.3 µM (2×) and 19.7 µM
MCF10A non-cancer cells
  Relative potency (+ anion to no anion), Ratio + anion:no anion: 0.09
H460; [1]
  pIC50: 6.63
H460; read-out: Mean IC50 values
  pIC50: 6.63
H460; [2]
  pIC50: 6.72 and 6.58 and 6.60
H460
  Selectivity index (ARPE19): 726.48
  Selectivity index (MCF10A): 65.36
  Relative potency (+ anion to no anion), Ratio + anion:no anion: 0.65
  Selectivity indices relative to ARPE-19, Ratio + anion:no anion: 1.663
  Selectivity indices relative to MCF10A, Ratio + anion:no anion: 1.128
BxPC3; [1]
  pIC50: 6.22
BxPC3; read-out: Mean IC50 values
  pIC50: 6.22
BxPC3; [2]
  pIC50: 6.18 and 6.37 and 6.15 and 6.14 and 6.33
BxPC3
  Selectivity index (ARPE19): 282.59
  Selectivity index (MCF10A): 25.42
  Relative potency (+ anion to no anion), Ratio + anion:no anion: 1.87
  Selectivity indices relative to ARPE-19, Ratio + anion:no anion: 0.575
  Selectivity indices relative to MCF10A, Ratio + anion:no anion: 0.050
DLD-1; [1]
  pIC50: 6.47
DLD-1; read-out: Mean IC50 values
  pIC50: 6.47
DLD-1
  Selectivity index (ARPE19): 500.80
  Selectivity index (MCF10A): 45.05
  Relative potency (+ anion to no anion), Ratio + anion:no anion: 1.99
  Selectivity indices relative to ARPE-19, Ratio + anion:no anion: 0.541
  Selectivity indices relative to MCF10A, Ratio + anion:no anion: 0.047
HCT116 p53+/+; [1]
  pIC50: 7.18
HCT116 p53+/+; read-out: Mean IC50 values
  pIC50: 7.18
HCT116 p53+/+; [2]
  pIC50: 7.20 and 7.13 and 7.21
HCT116 p53+/+
  Selectivity index (ARPE19): 2564.70
  Selectivity index (MCF10A): 230.73
  Relative potency (+ anion to no anion), Ratio + anion:no anion: 0.14
  Selectivity indices relative to ARPE-19, Ratio + anion:no anion: 7.600
  Selectivity indices relative to MCF10A, Ratio + anion:no anion: 0.665
